Experimental data reported in ChEMBL document CHEMBL1201862, “PubChem BioAssay data set” (2004).
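Exposure lasted 48 hours, with cells grown in 96-well plates and compounds tested at five concentrations. The concentration for 50% growth inhibition is given as GI50.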 Calls of active or inactive are those of the source. No stated cut-off is given here; in the data, active = GI50 up to about 1.1 µM and inactive = higher.

Key:
Assay in all cases: inhibition of tumour cell growth, NCI panel, 48 h
786-0 = test system: 786-0
A549 = test system: A549
ACHN = test system: ACHN
COLO 205 = test system: COLO 205
DMS-114 = test system: DMS-114
EKVX = test system: EKVX
HCC 2998 = test system: HCC 2998
M14 = test system: M14
MOLT-4 = test system: MOLT-4
NCI-H460 = test system: NCI-H460
OVCAR-4 = test system: OVCAR-4
RXF 393 = test system: RXF 393
SF-539 = test system: SF-539
SN12C = test system: SN12C
TK-10 = test system: TK-10
UACC-257 = test system: UACC-257
MDA-MB-231 = test system: MDA-MB-231
MDA-MB-435 = test system: MDA-MB-435
PC-3 = test system: PC-3

Measured: GI50

CN(C)CCc1ccc(Cl)cc1Cl
inactive: 786-0 > 100 µM | A549 > 100 µM | ACHN > 100 µM | COLO 205 > 100 µM | DMS-114 > 100 µM | EKVX > 100 µM | HCC 2998 > 100 µM | M14 > 100 µM | MOLT-4 > 100 µM | NCI-H460 > 100 µM | OVCAR-4 > 100 µM | RXF 393 > 100 µM | SF-539 > 100 µM | SN12C > 100 µM | TK-10 > 100 µM | UACC-257 > 100 µM

COc1cc(C)c(C(=O)/C=C/c2cc(OC)c(O)c(OC)c2)cc1O
inactive: 786-0 19.2 µM | A549 29.3 µM | ACHN 32.8 µM | COLO 205 32.7 µM | DMS-114 20.5 µM | EKVX 32.4 µM | HCC 2998 16.4 µM | M14 15.3 µM | MOLT-4 > 100 µM | NCI-H460 25.1 µM | OVCAR-4 21 µM | SF-539 29.6 µM | TK-10 45.6 µM | UACC-257 31.1 µM

CCOC1=CP(=O)(OCC)CC(C)=C1Cl (configuration not stated)
inactive: 786-0 > 100 µM | A549 > 100 µM | ACHN > 100 µM | COLO 205 7.21 µM | DMS-114 > 100 µM | EKVX > 100 µM | HCC 2998 > 100 µM | M14 > 100 µM | MOLT-4 > 100 µM | NCI-H460 > 100 µM | RXF 393 > 10 µM | SF-539 > 100 µM | SN12C > 100 µM | TK-10 > 100 µM | UACC-257 > 100 µM

NC(CO)c1ccc(OCc2ccccc2)cc1 (configuration not stated)
inactive: 786-0 > 100 µM | A549 > 100 µM | ACHN > 100 µM | COLO 205 > 100 µM | DMS-114 > 100 µM | EKVX 89.3 µM | HCC 2998 > 100 µM | M14 > 100 µM | MOLT-4 27.5 µM | NCI-H460 > 100 µM | OVCAR-4 > 92.7 µM | RXF 393 > 73.5 µM | SF-539 > 100 µM | SN12C > 91.8 µM | TK-10 > 100 µM | UACC-257 > 100 µM

O=C(O)COc1ccc(O)c2c1C(=O)CCCC2=O
inactive: 786-0 > 100 µM | A549 > 100 µM | ACHN > 100 µM | COLO 205 > 100 µM | DMS-114 > 100 µM | EKVX > 100 µM | HCC 2998 > 100 µM | M14 > 100 µM | MOLT-4 > 100 µM | NCI-H460 > 100 µM | OVCAR-4 > 100 µM | SF-539 > 100 µM | SN12C > 100 µM | TK-10 > 100 µM | UACC-257 > 100 µM

O=C1NC2C=CN(Cc3ccccc3)C=C2C(=O)N2CCCC12 (configuration not stated)
inactive: 786-0 > 100 µM | A549 > 100 µM | ACHN > 100 µM | COLO 205 > 100 µM | DMS-114 > 100 µM | EKVX > 100 µM | HCC 2998 > 100 µM | M14 > 100 µM | MOLT-4 > 100 µM | NCI-H460 > 100 µM | OVCAR-4 > 100 µM | RXF 393 > 100 µM | SF-539 > 100 µM | SN12C > 100 µM | TK-10 > 100 µM | UACC-257 > 100 µM

COc1ccc(-c2cc(C(=O)Nc3cccc(C(F)(F)F)c3)nc(S)n2)cc1
inactive: 786-0 > 100 µM | A549 > 100 µM | ACHN > 100 µM | COLO 205 > 100 µM | DMS-114 > 100 µM | EKVX > 100 µM | HCC 2998 > 100 µM | M14 > 100 µM | MOLT-4 > 100 µM | NCI-H460 > 100 µM | OVCAR-4 > 100 µM | RXF 393 > 100 µM | SF-539 > 100 µM | SN12C > 100 µM | TK-10 > 100 µM | UACC-257 > 100 µM

N#C/C(=N\c1ccccc1N(C(=O)c1ccccc1)C(=O)c1ccccc1)c1ccccc1
inactive: 786-0 > 91.6 µM | A549 9.04 µM | ACHN > 60.5 µM | COLO 205 > 42 µM | DMS-114 4.63 µM | EKVX > 100 µM | HCC 2998 > 68.4 µM | M14 > 100 µM | MOLT-4 3.82 µM | NCI-H460 32.8 µM | OVCAR-4 32.2 µM | SF-539 > 100 µM | SN12C > 71.8 µM | TK-10 > 100 µM | UACC-257 > 100 µM

Cc1cc(Cl)cc2c1NC(=O)C2(O)C(C)C(=O)c1ccc(Cl)cc1 (configuration not stated)
inactive: 786-0 85.7 µM | A549 > 100 µM | ACHN > 100 µM | COLO 205 97.1 µM | DMS-114 37.3 µM | EKVX > 81.5 µM | HCC 2998 > 100 µM | M14 > 100 µM | MOLT-4 28.4 µM | NCI-H460 > 100 µM | OVCAR-4 21.8 µM | RXF 393 47.8 µM | SF-539 > 62.1 µM | SN12C > 74.1 µM | TK-10 > 100 µM | UACC-257 42.6 µM

CCOc1ccc2c(c1)[n+]([O-])c(-c1ccccc1Cl)c(N)[n+]2[O-]
inactive: 786-0 > 100 µM | A549 > 100 µM | ACHN > 100 µM | COLO 205 > 100 µM | DMS-114 > 100 µM | EKVX > 100 µM | M14 > 100 µM | MOLT-4 74 µM | NCI-H460 > 100 µM | OVCAR-4 > 100 µM | RXF 393 > 100 µM | SF-539 > 100 µM | SN12C > 100 µM | UACC-257 > 100 µM

CCCC/C=C1\CCC(CN2CCOCC2)C1=O (configuration not stated)
inactive: 786-0 1.8 µM | A549 20.4 µM | ACHN 3.59 µM | COLO 205 2.97 µM | DMS-114 4.86 µM | EKVX 11.2 µM | HCC 2998 9.08 µM | M14 3.32 µM | MDA-MB-231 3.78 µM | MDA-MB-435 10.7 µM | MOLT-4 2.02 µM | NCI-H460 18.2 µM | OVCAR-4 11.7 µM | PC-3 13.2 µM | RXF 393 1.51 µM | SF-539 7.73 µM | SN12C 4.57 µM | TK-10 9.31 µM | UACC-257 5.28 µM

C=C1c2ccccc2N(S(=O)(=O)c2ccc(C)cc2)C12CCCCC2
inactive: 786-0 > 100 µM | A549 63.4 µM | ACHN 57.4 µM | COLO 205 43.5 µM | DMS-114 18.9 µM | EKVX > 100 µM | HCC 2998 > 100 µM | M14 94.4 µM | MOLT-4 30.4 µM | NCI-H460 86.7 µM | OVCAR-4 53.1 µM | RXF 393 45.6 µM | SF-539 > 100 µM | SN12C > 100 µM | TK-10 > 100 µM | UACC-257 36 µM

COc1cc(C2C(C(=O)O)=C(COC(C)=O)Oc3cc4c(cc32)OCO4)cc(OC)c1OC(C)=O (configuration not stated)
inactive: 786-0 > 100 µM | A549 > 100 µM | ACHN > 100 µM | COLO 205 > 100 µM | DMS-114 > 100 µM | EKVX > 100 µM | M14 > 100 µM | MOLT-4 > 100 µM | NCI-H460 > 100 µM | OVCAR-4 > 100 µM | RXF 393 > 100 µM | SN12C > 100 µM | TK-10 > 100 µM | UACC-257 > 100 µM

COc1c2c(c3c(c1C1OC(C)[C@@H](C)O1)CC(C)(C)O3)C(=O)c1ccccc1C2=O (some centres not stated)
inactive: 786-0 72.9 µM | A549 73.3 µM | ACHN 40.5 µM | COLO 205 35.1 µM | DMS-114 37.4 µM | EKVX > 100 µM | HCC 2998 76.2 µM | M14 65 µM | NCI-H460 37.6 µM | OVCAR-4 42 µM | RXF 393 28 µM | SF-539 > 100 µM | SN12C 35.6 µM | TK-10 > 100 µM | UACC-257 > 100 µM
